Measurements published in US11192849B2, “Compounds, compositions, and methods for modulating ferroptosis and treating excitotoxic disorders” (THE TRUSTEES OF COLUMBIA UNIVERSITY IN THE CITY OF NEW YORK, priority 2013, dated 2021).

Columns and labels:
[1] = system: HT-1080 cells; assay: Inhibition of erastin (10 μM)-induced death in HT-1080 cells (Alamar Blue); format: cell-based, human; conditions: for prevention of erastin-induced death: erastin-treated HT-1080 cells
Outline: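 HT-1080 cells (1,000/well) were treated next day with 10 μM erastin plus a compound dilution series for 24 h. Alamar Blue (10% final) was then added for 6 h and fluorescence read at ex/em 530/590.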

[2] = 2,2-Diphenyl-1-picrylhydrazyl (DPPH) cell-free antioxidant assay; format: biochemical; conditions: test compound 0.05 mM, 30 minutes
Method: The stable radical DPPH (Blois, 1958) was dissolved in methanol to a final working concentration of 0.05 mM. This was prepared as follows. First, a 100× stock concentration (5 mM) was prepared by dissolving 3.9 mg DPPH in 2 mL methanol. Then, for 25 mL of 0.05 mM final working solution, 250 μL of the 5 mM solution was added to 24.75 mL of methanol. 1 mL of DPPH solution was added to a small volume (<5 μL) each test compound dissolved in DMSO. The final concentration of each test compound was 0.05 mM. Samples were inverted several times and allowed to incubate at room temperature for 30 minutes. Samples were then aliquoted to white 96-well solid-bottom dishes (Corning) and absorbance at 517 nm was recorded using a TECAN M200 plate reader. All values were normalized to background (methanol only). The experiment was repeated three times and the data was averaged.
In parallel with the above cell-based assay, a 2,2-diphenyl-1-picrylhydrazyl (DPPH) assay was used to examine the ability of each analog to scavenge free radicals in a cell-free in vitro solution—a test of intrinsic antioxidant capacity. […] Redox active analogs scavenged the DPPH radical by 60-90% within 30 minutes (FIG. 18a).

[3] = system: HT-1080 cells; assay: Acridine orange relocalization (lysosomal membrane permeabilization) in HT-1080 cells; format: cell-based, human; conditions: acridine orange re-localization
Method: 200,000 HT-1080 cells were seeded into 6-well dishes (Corning). The next day, cells were incubated with 25 ng/mL of AO for 15 minutes, then medium was removed and cells were incubated in growth medium for 15 minutes. […] Relocalization of AO from lysosomes (discrete red puncta) to the cytosol (diffuse green color) was determined using an EVOS fl digital inverted fluorescent microscope (Advanced Microscopy Group) equipped with GFP (ex/em 470/525) and RFP (ex/em 531/593) light cubes.

[4] = system: rat organotypic hippocampal slice culture (OHSC); assay: Glutamate excitotoxic injury in organotypic hippocampal slice cultures (PI uptake); format: cell-based; conditions: 5 mM L-glutamate 3 hours; Fer-1 2 μM, CPX 5 μM, MK-801 10 μM; 24 hours
Method: OHSCs were cultured as previously described (Morrison et al., 2002) with approval from Columbia University's Institutional Animal Care and Use Committee (IACUC). Briefly, Sprague Dawley rat pups (P8-P10) were rapidly decapitated, and the hippocampus placed in ice-cold Gey's balanced salt solution (Sigma). 400 μm thick sections were cut using a Mcllwain tissue chopper and immediately plated on Millicell cell culture inserts (Millipore, Billerica, Mass.) in Neurobasal (Invitrogen) media supplemented with B27 (1×, Invitrogen), GlutaMAX (1 mM, Invitrogen), and D-glucose (4.5 mg/mL, Sigma) at 37° C. and 5% CO2. After 2 days in vitro (DIV), the media was changed to medium containing serum comprised of 50% DMEM (Sigma), 25% heat-inactivated horse serum (Sigma), 25% Hank's balanced salt solution (Sigma), GlutaMAX (1 mM, Invitrogen), and D-glucose (4.5 mg/mL, Sigma). Medium was changed every 2-3 days.
After 10-14 DIV, OBSCs were exposed to an excitotoxic injury consisting of a 3 hour exposure to 5 mM L-glutamate in SFM (Morrison et al., 2002). […] After the 3 hour exposure, the cultures were placed in fresh serum free media (SFM) containing 75% DMEM, 25% Hank's balanced salt solution, GlutaMAX (1 mM), D-glucose (4.5 mg/mL) until cell death was quantified at 24 hours. […]
Quantification of cell death has been described previously (Cater et al., 2007; Morrison et al., 2002). […] Percentage cell death was expressed as the number of pixels in the ROI above a threshold in the PI fluorescent image divided by the total number of pixels in the ROI.
OHSCs were treated with a lethal excitotoxic stimulus (5 mM L-glutamate, 3 hours) that mimics the consequences of stroke and neurodegenerative disease (Morrison et al., 2002; Sundstrom et al., 2005) (FIG. 5A). […] The effects of these compound treatments on propidium iodide (PI) uptake were analyzed, as an indicator of cell death, 24 hours following the end of glutamate treatment, in 3 defined regions of the OHSCs: the dentate gyrus (DG), the CA1 and the CA3 fields of the hippocampus.

[5] = system: Calu-1 cells; assay: Erastin-induced ferroptosis in Calu-1 cells, NOX pathway inhibitors; format: cell-based, human
Method: (§1) Cell viability was typically assessed in 384-well format by Alamar Blue (Invitrogen) fluorescence (ex/em 530/590) measured on a Victor3 platereader (Perkin Elmer, Waltham, Mass.). In some experiments, Trypan Blue dye exclusion counting was performed using an automated cell counter (ViCell, Beckman-Coulter Inc., Brea, Calif.). Cell viability in test conditions is reported as a percentage relative to the negative control treatment.

[6] = system: mouse kidney proximal tubules; assay: Hydroxyquinoline + iron induced cell death in isolated mouse kidney proximal tubules (LDH release); format: cell-based; conditions: 10 μM hydroxyquinoline and ferrous ammonium sulfate, 60 min
Method: Tubule preparation: 8-12 week old C57/BL6 female mice were euthanized with isoflurane. […] The cortices were then dissected and minced on an ice cold tile, then resuspended in additional Solution A for 8-10 min. of digestion at 37° C. followed by enrichment of proximal tubules using centrifugation on self-forming Percoll gradients as previously described for rabbit tubules.
Experimental procedures for isolated tubules: Tubules were suspended at 1.5-2.0 mg tubule protein/ml in a 95% air/5% CO2-gassed medium containing (in mM) 110 NaCl, 2.6 KCl, 25 NaHCO3, 2.4 KH2PO4, 1.25 CaCl2, 1.2 MgCl2, 1.2 MgSO4, 5 glucose, 4 sodium lactate, 0.3 alanine, 5 sodium butyrate, 2 glycine, and 1.0 mg/ml bovine gelatin (75 bloom) (Solution B). After precincubation for 15 min. at 37° C., then were then resuspended in fresh Solution B containing 2 mM heptanoic acid instead of sodium butyrate along with experimental compounds.
In addition, the efficacy of Fer-1, SRS11-92, and selected analogs was tested in a model of iron-induced cell death in freshly isolated mouse kidney proximal tubules that simulates major elements of rhabdomyolysis-induced acute kidney injury (FIG. 15C). Cell death in this model is known to involve oxidative lipid damage (Sogabe, et al., 1996, Park, et al., 2011); it was therefore believed that Fer-1 might be protective. 10 μM each of hydroxyquinoline and ferrous ammonium sulfate (HQ+Fe) were used to induce cell death, which was quantified by monitoring LDH release after 60 min. […] By implication, cell death in these models may involve, at least in part, the induction of lipid peroxidation and perhaps ferroptosis.

[7] = system: 143B osteosarcoma cells; assay: Erastin / RSL3 lethality in 143B ρ0 and ρ+ cells; format: cell-based, human; conditions: 24 hours
Method: as §1
Because two erastin targets, VDAC2 and VDAC3, reside in the mitochondria, it was hypothesized that erastin-induced death involved aberrant ROS production by the mitochondrial electron transport chain (ETC). […] Furthermore, KRAS-mutant 143B osteosarcoma cells incapable of ETC-dependent ROS formation, due to the depletion of mitochondrial DNA (mtDNA)-encoded transcripts (ρ^0 cells), were as sensitive to erastin and RSL3 as matched mtDNA-wild-type (ρ^+) cells (FIGS. 1E, 1F, and 8C-E). Thus, erastin-induced cell death in human cancer cells involves DFO-sensitive ROS accumulation and can occur in cells lacking a functional ETC. This iron-dependent death phenotype was named ferroptosis.

[8] = molecular target: T1, system xc− (Homo sapiens, UniProt Q9UPY5); assay: [14C]Cystine uptake assay in HT-1080 cells; format: cell-based; conditions: Erastin 10 μM, glutamate 50 mM, SAS 1 mM
T1 construct: endogenous in cells; host or cells: HT-1080 cells (ATCC)
T1 sequence (Q9UPY5 1-501): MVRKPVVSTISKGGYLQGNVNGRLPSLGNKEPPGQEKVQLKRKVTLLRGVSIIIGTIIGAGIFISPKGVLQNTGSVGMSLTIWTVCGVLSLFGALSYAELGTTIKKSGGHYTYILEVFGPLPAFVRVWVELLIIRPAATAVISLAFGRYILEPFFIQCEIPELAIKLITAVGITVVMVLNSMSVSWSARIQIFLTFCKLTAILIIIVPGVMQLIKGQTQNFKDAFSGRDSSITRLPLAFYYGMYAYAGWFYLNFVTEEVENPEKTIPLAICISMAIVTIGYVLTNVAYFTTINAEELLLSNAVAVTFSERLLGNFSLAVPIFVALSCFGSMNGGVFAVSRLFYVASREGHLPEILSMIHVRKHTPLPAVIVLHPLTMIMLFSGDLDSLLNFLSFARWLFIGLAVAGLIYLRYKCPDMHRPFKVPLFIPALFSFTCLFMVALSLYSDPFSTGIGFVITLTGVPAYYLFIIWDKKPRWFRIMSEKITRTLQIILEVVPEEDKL
T1 sequence (P08195 1-529 partner): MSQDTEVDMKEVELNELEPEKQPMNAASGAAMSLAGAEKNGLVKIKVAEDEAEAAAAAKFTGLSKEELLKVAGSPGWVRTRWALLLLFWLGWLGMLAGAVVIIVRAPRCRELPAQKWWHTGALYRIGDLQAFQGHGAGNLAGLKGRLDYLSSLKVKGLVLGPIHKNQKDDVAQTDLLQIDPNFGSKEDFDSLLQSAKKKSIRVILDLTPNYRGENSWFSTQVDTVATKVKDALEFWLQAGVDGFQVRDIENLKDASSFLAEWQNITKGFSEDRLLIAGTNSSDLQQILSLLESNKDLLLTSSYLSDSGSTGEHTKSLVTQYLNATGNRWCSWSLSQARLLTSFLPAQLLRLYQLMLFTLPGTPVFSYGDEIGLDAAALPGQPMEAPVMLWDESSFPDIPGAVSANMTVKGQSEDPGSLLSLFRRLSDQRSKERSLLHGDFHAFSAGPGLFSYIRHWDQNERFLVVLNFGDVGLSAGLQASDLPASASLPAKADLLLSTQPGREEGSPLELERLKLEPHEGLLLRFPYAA
Method: 200,000 HT-1080 cells/well were seeded overnight in 6-well dishes (Corning). […] At this point, in each well the buffer was replaced with 600 μL uptake buffer containing compound and 0.12 μCi (80-110 mCi/mmol) of L-[3,3′-^14C]-cystine (Perkin Elmer) and incubated for 3 minutes at 37° C. Cells were then washed three times with ice-cold uptake buffer and lysed in 500 μL 0.1 M NaOH. To this lysate was added 15 mL of scintillation fluid and radioactive counts per minute were obtained using a scintillation counter. All measurements were performed in triplicate for each condition.

[9] = system: HT-1080 cells; assay: Mitochondrial ROS (MitoSOX) in HT-1080 cells; format: cell-based, human; conditions: HT-1080, 6 hours; erastin 10 μM, rotenone 250 nM
Method: 200,000 HT-1080 cells were seeded into 6-well dishes (Corning). The next day, cells were treated with +/−rotenone +/−ferrostatin-1 for 3 hours (for MitoSOX experiments) or +/−STS +/−ferrostatin-1 for 4 hours (for 10-N-nonylacridine orange [NAO] experiments), harvested by trypsinization and analyzed as follows. For the analysis of mitochondrial ROS, cells were incubated with 5 μM MitoSOX (Molecular Probes/Invitrogen) in HBSS for 10 minutes in the dark at 37° C. […] MitoSOX data were collected in the FL2 channel and NAO data was collected in the FL1 channel. Data are from three independent biological replicates of each experiment. Data were analyzed by one-way ANOVA with Bonferroni's post-hoc test.
A minimum of 10,000 cells were analyzed per condition.

In the case of `CCOC(=O)c1ccc(N)c(N)c1` [CA1], the EC50 ([1]; SI Table 8, read-out: EC50) is reported as over 10 µM, the “prevention of erastin-induced death” value [1] is reported as “destroyed” and the “intrinsic antioxidant capability in the DPPH assay” value [2] is reported as “destroyed the antioxidant capability”.

For `Cc1cc(C2CCCCC2)n(O)c(=O)c1` [CPX, ciclopirox olamine, reference compound], the “lysosomal membrane destruction in response to H2O2” value [3] was “protects from lysosomal rupture”, the “prevention of erastin-induced death” value [1] was “suppressed erastin-induced death” and the “glutamate-induced cell death (PI uptake) in DG, CA1, CA3” value [4] was “attenuated significantly”.

In the case of `c1ccc2c(c1)[I+]c1ccccc1-2` [DPI, diphenylene iodonium], the “suppression of erastin-induced ferroptosis” value [5] is reported as “strongly suppressed”.

For `CN(C)c1cccc(-c2c3c(=O)n(-c4ccccc4Cl)[nH]c3cc(=O)n2C)c1` [GKT137831, reference compound], the “HQ+Fe induced lethality (LDH release)” value [6] was “protective” and the “suppression of erastin-induced ferroptosis” value [5] was “strongly suppressed”.

In the case of `C[C@]12N[C@H](Cc3ccccc31)c1ccccc12` [MK-801], the “glutamate-induced cell death (PI uptake) in DG, CA1, CA3” value [4] is reported as “attenuated significantly”.

For `COC(=O)c1ccc([C@@H]2c3[nH]c4ccccc4c3C[C@@H](C(=O)OC)N2C(=O)CCl)cc1` [RSL3], the “sensitivity of ρ0 versus ρ+ cells” value [7] was “as sensitive” and the “Na+-independent uptake of [14C]cystine” value [8] was “had no effect on this process”.

In the case of `O=C(O)c1cc(/N=N/c2ccc(S(=O)(=O)Nc3ccccn3)cc2)ccc1O` [SAS, sulfasalazine], the “Na+-independent uptake of [14C]cystine” value [8] is reported as “abolished”.

For `N[C@@H](CCC(=O)O)C(=O)O` [glutamate], the “Na+-independent uptake of [14C]cystine” value [8] was “abolished”.

With `C=C(C)[C@H]1Cc2c(ccc3c2O[C@@H]2COc4cc(OC)c(OC)cc4[C@@H]2C3=O)O1` [rotenone, reference compound] the “MitoSOX-sensitive mitochondrial ROS production” value [9] was “enhanced MitoSOX-sensitive ROS production”.
